Source: paper PMC2882366 (PLoS ONE, 2010)
Where two headings read alike, the source gives them in different places.

Experiments:
[1] = tested on: p/t-S6RP (S240/244) in canine osteosarcoma cell lines (BW and SK); assay: ECL quantification of p/t-S6RP in canine osteosarcoma cell lines; assay type: cell-based
Experimental: (§1) Protein concentration of lysates was determined by BCA protein assay (Pierce, Thermo Fischer Scientific, Rockford, IL). Lysates were separated with Invitrogen NuPage gels (Invitrogen, Carlsbad, CA) and transferred to nitrocellulose membranes. The blots were probed for the proteins of interest with specific antibodies followed by a secondary antibody (Cell Signaling Technology, Inc, Danvers, MA) and then incubated with SuperSignal chemiluminescence substrate (Pierce). The blots were then exposed to Kodak Biomax Light Film (Kodak, Rochester, NY). The antibodies against AKT and p-AKT (Ser473), S6RP and p-S6RP, and actin were obtained from Cell Signaling.
The samples (cell lines, tumor, PBMC) used for ECL were prepared based on the Meso-Scale Discovery (MSD) lysate preparation protocol (Meso-Scale Discovery, Gaithersburg, MD) using complete lysis buffer with protease and phosphatase inhibitors. For quantitative analysis of phospho-proteins, duplex t/p-AKT (S473) and duplex t/p-S6RP (S240/S244) were obtained from MSD, used following manufacturer's instructions, and read with Sector Imager 2400 (MSD). A total of 25 ug of lysates were used per well for the duplex assays. Out of the 19 paired tumor biopsies analyzed, 9 were excluded due to values below the detection limit, of which 8 were from one trial site. […] PBMC from 8 patients were analyzed for p-S6RP/t-S6RP and all data was shown. […]

[2] = tested on: dogs with appendicular osteosarcoma
Source text: All dogs underwent a pre-treatment tumor biopsy and collection of PBMC at study initiation. […] The defined study period was 15 days. Safety, tumoral pharmacodynamic (PD) modulation, correlation to surrogates (PBMC), and the relationship between PK and PD were study endpoints.
Escalation through 5 planned dose cohorts was based on assessment of dose limiting toxicities (DLT) using VCOG modified-CTCAE convention [32]. Age (range, 3.7–11.9 years; median 7.9 years), sex (14 spayed females, 8 castrated males) and breed (5 mixed-breed and 17 purebred) were recorded for all dogs enrolled on study ( Table 3 : Patient Characteristics).
Dogs underwent a complete physical examination, CBC, serum biochemical profile, UA and pre-treatment biopsies at Day 0. Vital signs (core temperature, pulse, respiratory rate) were recorded at baseline. […] Owners completed an Owner Assessment Form on Days 0, 8 and 15 to record impressions of their dog's clinical status throughout the study period.
Blood samples were collected to define hematologic and biochemical DLT. CBC, biochemical profile and urinalysis were evaluated at Day 0, and then weekly (pre-operatively at Day 8 and Day 15) to define safety. The Veterinary Cooperative Oncology Group Common Toxicity Criteria for Adverse Events (VCOG-CTCAE) was used to determine DLT, defined as any grade 3 or grade 4 (hematologic or non-hematologic) events [32]. […] MTD was defined as one dose level below the maximum achieved in dose-escalation. Any and all adverse events were collected within the electronic database reporting system (C3D) following strict one-week reporting timelines.

[3] = Rapamycin whole blood pharmacokinetics (HPLC-MS/MS, non-compartmental) in dogs with osteosarcoma; assay type: in vivo, dog; conditions: for measurable trough levels: CD8, CD9; for concentration at 15 day / concentration at 8 day / concentration at 9 day / concentration at 48 h / Tmax / half-life / Cmax / AUC(0-t): dog, whole blood; for concentration at 15 day / concentration at 8 day / concentration at 9 day / concentration at 48 h: intramuscular; for concentration at 15 day: Day 15 (seven days after cessation), read-out: CD15; for concentration at 8 day: trough Day 8, median (range), read-out: CD8; for concentration at 9 day: trough Day 9, median (range), read-out: CD9; for concentration at 48 h: 48 h after first dose, read-out: C48h; for AUC(0-t): read-out: AUC0–48
Experimental: Subsequent doses were administered on days 3–8. Additional pharmacokinetic samples were obtained on days 8 (192h, day of definitive resection) and 9 (hr 216, after last day of dosing) and 15 (360 hr). […] Whole blood was transferred to cyrovials and stored at −80°C until analysis. Whole blood, serum and plasma were collected from all patients. Serum and plasma samples were stored for post-hoc hypothesis generating assessments.
The eluate was analyzed using HPLC with MS/MS detection. […] Clinical sample results were calculated using peak area ratios and calibration curves were generated using a weighted (1/x^2) linear least-squares regression. […] All data were acquired, processed, and reported using Applied Biosystems/MDS-Sciex Analyst Version 1.4 software (www.lifetechnologies.com, Carlsbad, CA).
Area under the concentration time curve to the time point measured at 48hr after the first dose (AUC0–48h) was calculated with the linear trapezoidal method. The terminal rate constant was derived from the slope of the natural log transformed concentrations and times on the terminal elimination phase of the decay curve. Terminal elimination half-life was calculated by dividing 0.693 by the terminal rate constant. The relationship of pharmacokinetic parameters and pharmacodynamic variables were examined using scatter plots.

[4] = tested on: p/t-S6RP in PBMC; assay: PBMC p-S6RP/t-S6RP by electrochemiluminescence; assay type: in vivo, dog
Experimental: Modulation of mTOR pathway targets were evaluated in matched tumor ( Figure 4A .) and PBMC samples ( Figure 4B .) to compare p-S6RP and p-AKT expression pre- and post-rapamycin treatment. ECL techniques were utilized to accurately quantify the relative percentage of phospho-protein over total protein (p/t) in tumor and PBMC. Quality control assessments defined 10 tumor and 8 PBMC samples eligible for evaluation. […] Modulation of mTOR pathway targets in PBMC and tumor samples were concordant.
PBMCS were collected in two (2) 8 ml BD CPT vacutainers (Becton Dickinson, Franklin Lakes, NJ) with sodium heparin, each filled completely with whole blood. […]
The samples (cell lines, tumor, PBMC) used for ECL were prepared based on the Meso-Scale Discovery (MSD) lysate preparation protocol (Meso-Scale Discovery, Gaithersburg, MD) using complete lysis buffer with protease and phosphatase inhibitors. For quantitative analysis of phospho-proteins, duplex t/p-AKT (S473) and duplex t/p-S6RP (S240/S244) were obtained from MSD, used following manufacturer's instructions, and read with Sector Imager 2400 (MSD). […] Out of the 19 paired tumor biopsies analyzed, 9 were excluded due to values below the detection limit, of which 8 were from one trial site. […] PBMC from 8 patients were analyzed for p-S6RP/t-S6RP and all data was shown.

[5] = tested on: p-S6RP in canine osterosarcoma cell lines (BM, SK); assay: Immunoblot of p-S6RP in canine osteosarcoma cell lines; assay type: cell-based; conditions: 100 nM, BM and SK cells
Experimental: as §1
Controls were Jurkat cells treated with LY (−) or PMA (+). B. Quantitative determination of total and p-S6RP (S240/244) with electrochemiluminescence (ECL) assay. C. […] (1.56 MB TIF) Click here for additional data file.

[6] = both, various breeds (5 mixed-breed and 17 purebred dogs), dog, in vivo, 15 days
[7] = Mixed Breed (2 dogs), Boxer (1 dog), 0.04 mg/kg IM daily, N=3
[8] = Mixed Breed (2 dogs), Boxer (1 dog), 0.04 mg/kg IM, after first dose, median (range), N=3
[9] = 0.01 mg/kg IM, after first dose, median (range), N=3
[10] = 0.06 mg/kg IM, after first dose, median (range), N=7
[11] = 0.08 mg/kg IM, after first dose, median (range), N=4
[12] = 0.02 mg/kg IM, after first dose, median (range), N=4

Structure (SMILES): CO[C@H]1C[C@@H]2CC[C@@H](C)[C@@](O)(O2)C(=O)C(=O)N2CCCC[C@H]2C(=O)O[C@H]([C@H](C)C[C@@H]2CC[C@@H](O)[C@H](OC)C2)CC(=O)[C@H](C)/C=C(\C)[C@@H](O)[C@@H](OC)C(=O)[C@H](C)C[C@H](C)/C=C/C=C/C=C/1C [rapamycin, Rapamycin]
- reduction of p/t-S6RP ([1]; BW and SK cells, rapamycin 100 nM for 4 hours vs untreated controls): approximately 50 ×
- inhibition of down-stream targets of mTOR ([1]; canine osteosarcoma cell lines, western blot and ECL): inhibits down-stream targets of mTOR in a dose-dependent fashion
- anorexia, self-limiting non-dose limiting toxicity (grade 1,2), number of dogs [2, 6]: 2
- diarrhea, self-limiting non-dose limiting toxicity (grade 1,2), number of dogs [2, 6]: 1
- thrombocytopenia, self-limiting non-dose limiting toxicity (grade 1,2), number of dogs [2, 6]: 1
- vomiting, self-limiting non-dose limiting toxicity (grade 1,2), number of dogs [2, 6]: 2
- febrile episodes reported ([2]; dog, in vivo): two
- immunosuppression and surgical incision healing delays ([2]; dog, in vivo): Neither immunosuppression nor surgical incision healing delays were reported
- lymphopenia, post-operative infection rate, surgical incision healing delays ([2]; dog, in vivo): no evident lymphopenia, increased post-operative infection rate, nor surgical incision healing delays
- neurological, respiratory, renal, or biochemical toxicities related to treatment ([2]; dog, in vivo): no clinically significant
- tolerability of dose escalation ([2]; dog, in vivo): well tolerated
- maximally tolerated dose (MTD) ([2]; escalation to 0.08 mg/kg IM daily, n = 19): not defined
- median trough concentrations on day 8 and 9 (CD8, CD9) ([3]; 0.06 mg/kg (approx 2.1 mg/day) IM daily): greater than 10 ng/mL
- median trough concentrations on day 8 and 9 (CD8, CD9) ([3]; 0.08 mg/kg (approx 2.8 mg/day) IM daily): greater than 10 ng/mL
- measurable trough levels ([3]; 4th dose cohort (0.06 mg/kg, approx 2.1 mg)): ≥ 10 ng/mL
- measurable trough levels ([3]; 5th dose cohort (0.08 mg/kg, approx 2.8 mg)): ≥ 10 ng/mL
- concentration at 15 day ([3]; Mixed Breed (2 dogs), Boxer (1 dog), 0.04 mg/kg IM daily, median (range), N=3): 1.56 ng/mL
- concentration at 8 day [3, 7]: 6.62 ng/mL
- concentration at 9 day [3, 7]: 7.92 ng/mL
- concentration at 48 h ([3]; Mixed Breed (2 dogs), Boxer (1 dog), 0.04 mg/kg IM, median (range), N=3): 1.86 ng/mL
- Tmax [3, 8]: 24 h
- half-life ([3]; Mixed Breed (2 dogs), Boxer (1 dog), 0.04 mg/kg IM, terminal half-life, median (range), N=3, read-out: T1/2 (converted)): 62.7 h
- Cmax [3, 8]: 2.87 ng/mL
- AUC(0-t) [3, 8]: 105 ng·h/mL
- Steady state ([3]; after 8 days of exposure, daily IM): not achieved
- Tmax ([3]; both sexes, all dogs, 0.01–0.08 mg/kg IM, range): 2 to 48 h
- half-life ([3]; both sexes, dogs, IM, read-out: terminal half-life): > 60 h
- half-life ([3]; im, 0.01 mg/kg, read-out: T1/2 (converted)): 115 h
- concentration at 15 day ([3]; 0.01 mg/kg IM daily, median (range), N=3): 0.45 ng/mL
- concentration at 8 day ([3]; 0.01 mg/kg IM daily, N=3): 2.78 ng/mL
- concentration at 9 day ([3]; 0.01 mg/kg IM daily, N=3): 1.92 ng/mL
- concentration at 48 h ([3]; 0.01 mg/kg IM, median (range), N=3): 0.91 ng/mL
- concentration at 15 day ([3]; 0.02 mg/kg IM daily, median (range), N=4): 0.86 ng/mL
- concentration at 8 day ([3]; 0.02 mg/kg IM daily, N=4): 5.63 ng/mL
- concentration at 9 day ([3]; 0.02 mg/kg IM daily, N=4): 5.93 ng/mL
- concentration at 48 h ([3]; 0.02 mg/kg IM, median (range), N=4): 1.26 ng/mL
- concentration at 15 day ([3]; 0.06 mg/kg IM daily, median (range), N=7): 1.04 ng/mL
- concentration at 8 day ([3]; 0.06 mg/kg IM daily, N=7): 9.84 ng/mL
- concentration at 9 day ([3]; 0.06 mg/kg IM daily, N=7): 9.3 ng/mL
- concentration at 48 h ([3]; 0.06 mg/kg IM, median (range), N=7): 3.61 ng/mL
- concentration at 15 day ([3]; 0.08 mg/kg IM daily, median (range), N=4): 3.66 ng/mL
- concentration at 8 day ([3]; 0.08 mg/kg IM daily, N=4): 15.4 ng/mL
- concentration at 9 day ([3]; 0.08 mg/kg IM daily, N=4): 16.4 ng/mL
- concentration at 48 h ([3]; 0.08 mg/kg IM, median (range), N=4): 4.6 ng/mL
- Tmax [3, 9]: 24 h
- Tmax ([3]; 0.02 mg/kg IM, after first dose, median, N=4): 24 h
- half-life ([3]; 0.02 mg/kg IM, terminal half-life, median (range), N=4, read-out: T1/2 (converted)): 70.8 h
- Tmax [3, 10]: 6 h
- half-life ([3]; 0.06 mg/kg IM, terminal half-life, median (range), N=7, read-out: T1/2 (converted)): 72.7 h
- Tmax [3, 11]: 15 h
- half-life ([3]; 0.08 mg/kg IM, terminal half-life, median (range), N=4, read-out: T1/2 (converted)): 86.6 h
- Cmax [3, 9]: 1.27 ng/mL
- AUC(0-t) [3, 9]: 47.4 ng·h/mL
- Cmax [3, 12]: 1.69 ng/mL
- AUC(0-t) [3, 12]: 64.3 ng·h/mL
- Cmax [3, 10]: 7.29 ng/mL
- AUC(0-t) [3, 10]: 285 ng·h/mL
- Cmax [3, 11]: 12.1 ng/mL
- AUC(0-t) [3, 11]: 309 ng·h/mL
- systemic exposure (Cmax and AUC0–48h) versus dose ([3]; dose range 0.01–0.08 mg/kg IM): increased proportionally to rapamycin dose
- PBMC p/t-S6RP inhibition ([4]; Day 8, maintained through Day 15, n = 8, p<0.0001): highly significant
- dogs with PBMC phosphorylation of S6RP significantly inhibited ([4]; Day 8 after rapamycin therapy): 8/8
- rapamycin-mediated inhibition of p-S6RP (immunoblot) [5]: inhibition of p-S6RP
